# From PubChem BioAssay AID330 (DTP/NCI, 2004)
# Several values for one entry are separate records, joined by “and”; a condition that tells them apart may be missing. Identical values can stand only once. Toxic doses and inconclusive results are not listed.
# Tested on: P388 leukemia ip, CD2F1 mice, survival T/C
# Assay: NCI In Vivo Anticancer Drug Screen. Data for tumor model P388 Leukemia (intraperitoneal) in CD2F1 (CDF1) mice
# Settings: endpoint: median survival time, higher = longer survival
# Method in brief: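 Mice carrying the transplanted tumor received test compound or vehicle. Survival was recorded in each group, and the value is the treated-group measurement divided by that of the vehicle-treated control group.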
# [1] = dose: 60.0 mg/kg/injection, schedule: Q01DX005 (ip), vehicle: saline with Tween-80
# [2] = dose: 120.0 mg/kg/injection, schedule: Q01DX005 (ip), vehicle: saline with Tween-80
# [3] = dose: 240.0 mg/kg/injection, schedule: Q01DX005 (ip), vehicle: saline with Tween-80
# [4] = dose: 100.0 mg/kg/injection, schedule: Q04DX003 (ip), vehicle: saline with Tween-80
# [5] = dose: 200.0 mg/kg/injection, schedule: Q04DX003 (ip), vehicle: saline with Tween-80
# [6] = dose: 50.0 mg/kg/injection, schedule: Q01DX005 (ip), vehicle: saline with Tween-80
# [7] = dose: 100.0 mg/kg/injection, schedule: Q01DX005 (ip), vehicle: saline with Tween-80
smiles,measurement,setting,value
CS(=O)(=O)CC#N,T/C,"dose: 7.5 mg/kg/injection, schedule: Q01DX005 (ip), vehicle: saline",96 % of control
same,T/C,"dose: 15.0 mg/kg/injection, schedule: Q01DX005 (ip), vehicle: saline",100 % of control
same,T/C,"dose: 30.0 mg/kg/injection, schedule: Q01DX005 (ip), vehicle: saline",95 % of control
O=C1CCCN1CC#CCN1CCCC1,T/C,"dose: 0.79 mg/kg/injection, schedule: Q01DX001 (ip), vehicle: saline",97 % of control
same,T/C,"dose: 0.79 mg/kg/injection, schedule: Q01DX005 (ip), vehicle: saline",100 % of control
same,T/C,"dose: 1.56 mg/kg/injection, schedule: Q01DX001 (ip), vehicle: saline",103 % of control
same,T/C,"dose: 1.56 mg/kg/injection, schedule: Q01DX005 (ip), vehicle: saline",97 % of control
same,T/C,"dose: 3.12 mg/kg/injection, schedule: Q01DX001 (ip), vehicle: saline",105 % of control
same,T/C,"dose: 3.12 mg/kg/injection, schedule: Q01DX005 (ip), vehicle: saline",97 % of control
CC1=CC[C@H]2C(=O)N(CCN(C)C)C(=O)[C@H]2C1,T/C,"dose: 50.0 mg/kg/injection, schedule: Q01DX005 (ip), vehicle: saline",100 % of control
same,T/C,"dose: 100.0 mg/kg/injection, schedule: Q01DX005 (ip), vehicle: saline",100 % of control
same,T/C,"dose: 200.0 mg/kg/injection, schedule: Q01DX005 (ip), vehicle: saline",98 % of control
OC1C2CCCC1C(c1ccccc1)NC2c1ccccc1 (stereo unspecified),T/C,"dose: 100.0 mg/kg/injection, schedule: Q04DX003 (ip), vehicle: saline",100 % of control and 94 % of control
same,T/C,"dose: 200.0 mg/kg/injection, schedule: Q04DX003 (ip), vehicle: saline",100 % of control and 94 % of control
same,T/C,"dose: 400.0 mg/kg/injection, schedule: Q04DX003 (ip), vehicle: saline",100 % of control
O=c1cc2n(c(=O)n1-c1ccccc1)CCCC2,T/C,[1],102 % of control
same,T/C,[2],100 % of control
same,T/C,[3],103 % of control
c1ccc(-c2csnn2)cc1,T/C,"dose: 25.0 mg/kg/injection, schedule: Q04DX003 (ip), vehicle: saline with Tween-80",99 % of control
same,T/C,"dose: 50.0 mg/kg/injection, schedule: Q04DX003 (ip), vehicle: saline with Tween-80",100 % of control
same,T/C,[4],99 % of control
same,T/C,[5],106 % of control
COC1=C(OC)C(=O)C(C)(CC=C(C)C)CC1=O (stereo unspecified),T/C,"dose: 13.0 mg/kg/injection, schedule: Q01DX009 (ip), vehicle: saline + alcohol",113 % of control
same,T/C,"dose: 25.0 mg/kg/injection, schedule: Q01DX009 (ip), vehicle: saline + alcohol",113 % of control
same,T/C,"dose: 50.0 mg/kg/injection, schedule: Q01DX009 (ip), vehicle: saline + alcohol",103 % of control
O=C(NCCCCCCNC(=O)C12CC3CC(CC(C3)C1)C2)C12CC3CC(CC(C3)C1)C2,T/C,"dose: 50.0 mg/kg/injection, schedule: Q01DX005 (ip), vehicle: Klucel (hydroxypropylcellulose) (HPC)",92 % of control
same,T/C,"dose: 100.0 mg/kg/injection, schedule: Q01DX005 (ip), vehicle: Klucel (hydroxypropylcellulose) (HPC)",92 % of control
same,T/C,"dose: 200.0 mg/kg/injection, schedule: Q01DX005 (ip), vehicle: Klucel (hydroxypropylcellulose) (HPC)",90 % of control
OC(COc1c2ccccc2nc2ccccc12)COc1c2ccccc2nc2ccccc12,T/C,[1],104 % of control
same,T/C,[2],101 % of control
same,T/C,[3],101 % of control
CCCCCCCCCCCCCCCC(=O)N1CCN(C)CC1,T/C,"dose: 25.0 mg/kg/injection, schedule: Q01DX009 (ip), vehicle: saline with Tween-80",115 % of control
COc1ccc2c(C#N)cc3c(c[n+](C)c4ccccc34)c2c1,T/C,"dose: 12.5 mg/kg/injection, schedule: Q04DX003 (ip), vehicle: distilled water + Tween-80",105 % of control
same,T/C,"dose: 25.0 mg/kg/injection, schedule: Q04DX003 (ip), vehicle: distilled water + Tween-80",115 % of control
COC(=O)c1cc(=O)nc(NN)s1,T/C,[6],92 % of control
same,T/C,[7],90 % of control
Cc1cc(OP2(=O)Nc3ccccc3-c3ccccc3N2)ccc1Cl,T/C,[6],98 % of control
same,T/C,[7],89 % of control
CSc1ccc(Cl)cc1NC(=O)N(C)C,T/C,[4],98 % of control
same,T/C,[5],98 % of control
same,T/C,"dose: 400.0 mg/kg/injection, schedule: Q04DX003 (ip), vehicle: saline with Tween-80",96 % of control
